Measured values reported in patent US20020165233A1, “Quinoxaline containing medicaments for post exposure prophylaxis of an HIV infection” (priority 1999, published 2002).
“Also recorded” adds a separate entry of the source.

Key:
RT-SHIV [1] = experiment: Anti-SIV ELISA (humoral response); format: in vivo, rhesus monkeys
Method: (§1) Nine rhesus monkeys (male, 2 years old, 2-3 kg) were seronegative for SIV, Simian T cell Leukemia Virus (STLV), B virus and Type D retroviruses. 15 mg/kg body weight of COMPOUND A was subcutaneously administered into animals twice a day (12 h interval) for 28 d. Animals were divided into three groups. All animals were intravenously administered with 100 TCID50 of RT-SHIV The first group consisted of three animals treated with COMPOUND A from 8 h post exposure for 28 d. The second group of animals was treated with COMPOUND A from 24 h post exposure for 28 d. The third group (control) received the solvent that was used to dissolve COMPOUND A (PEG400:glycerol:water=[…]) from 8 h post exposure for 28 d.
1:100 fold diluted plasma was assayed with ELISA plates coated with SIVmac239 virion lysate. Antibody titer was monitored by measuring the absorbance at 492 nm.

RT-SHIV [2] = experiment: RT-SHIV proviral DNA in PBMC and LNMC (quantitative PCR); format: in vivo, rhesus monkeys; settings: for RT-SHIV proviral DNA in LNMC: 8 w p.e.
Method: as §1
(§2) Blood was collected from all the animals either just before or 2 h after the drug administration on 0, 3, 7, 10, 14, 21, 29 d post exposure in order to check the drug concentration, otherwise in intervals of 2 to 8 weeks. Biopsy of inguinal lymph nodes was conducted on 17 d or 18 d and 8 weeks post exposure in two animals per group. Cerebrospinal fluid (CSF) was collected from the animals just before biopsy.
T-SHIV DNA Amount in Peripheral Blood Mononuclear Cells (PBMC) and Lymph Node Cells (LNC):
PBMC were separated by Ficoll-Hypaque gradient centrifugation. Cellular DNA was purified from 1×10^6 cells with a commercial DNA purification kit (Qiagen). Gag sequence of viral DNA was PCR amplified with the primers SG05i and SG06i. Nested PCR amplification with two sets of primers, i.e. F34C (nt. 9065 to 9082)(5′-CCTACCTACAATATGGGT-3′) and F35C (nt. 9800 to 9778)(5′-[…]-3′), the second primers: N3 (nt. 9182 to 9201)(5′-GMGATGGATACTCGCAATC-3′) and N4, (nt. 9552 to 9533)(5′-TMTCCTGCCAATCTGGTAT-3′) was performed to detect one copy per 100,000 cells. Detection and quantitative determination of the viral DNA copy number was conducted as described for plasma viral load. The cell numbers of PBMC and LNC were estimated by imaging analysis of cyber green-stained chromosomal DNA separated by agarose gel electrophoresis.
The detection limit was 1 copy DNA per 100,000 cells. In contrast to the untreated animals, the proviral DNA levels were very low in the treated groups.

RT-SHIV [3] = experiment: Inhibitory activity on RT-SHIV replication in Herpes Saimiri Virus transformed monkey CD4+ T cells (P27 SIV gag antigen); format: cell-based, chimeric simian-human immunodeficiency virus (SHIV)
Method: The virus used in the experiments is a chimeric simian-human immunodeficiency virus (SHIV) that consists of SIVmac239 virus genome with replacement of reverse transcriptase gene (RT) by the corresponding HIV-1 RT gene (Ueberla, K. et al (1995), Medical Sciences 92, […]). RT-SHIV induced AIDS in experimentally infected rhesus monkeys (Ueberla, loc.cit.). Proviral RT-SHIV DNA was prepared by ligation of RT-SHIV5′ and 3′ half of SIVmac239. COS-1 virus stocks were prepared by DNA transfection of proviral DNA. Virus stocks for efficacy experiments were prepared by propagation of COS-1 virus stock in rhesus monkey peripheral blood lymphocytes (PBL). P27 antigen concentration of the virus stocks was determined with a commercial SIV gag antigen ELISA kit (Coulter). The 50% T cell infective dose (TCID50) of the stocks was determined with Herpes Simiri Virus transformed cynomolgus CD4^+ T cells (cyT/HSV).
Inhibitory Activity of COMPOUND A on RT-SHIV Replication in Herpes Saimiri Virus Transformed Monkey CD4^+ T Cells:
3×10^6 of CyT/HSV cells were infected with RT-SHIV stocks containing 10000 TCID50 for 2 h at 37° C., then washed and resuspended in the medium containing serially diluted COMPOUND A (0, 0.1, 0.3, 1, 3, 10, 30, 100, 300, 1000 nM). […] Virus growth was monitored by measuring of P27 SIV gag antigen in culture supernatant with a commercial kit.

[4] = set-up: species or system rhesus monkeys; settings: rhesus monkey, in vivo, sc, 15 mg/kg
Method: as §1, §2
Determination of COMPOUND A Concentration in Plasma and CSF:
Blood was collected from all animals just before or 2 h after drug administration to check trough (lowest) or highest blood concentration of the drug. COMPOUND A concentration in CSF was determined by HPLC.

CC[C@H]1C(=O)Nc2ccc(F)cc2N1C(=O)OC(C)C [Compound A, (3S)-ethyl-6-fluoro-4-isopropyloxycarbonyl-3,4-dihydroquinoxalin-2(1H)-one]
induction of humoral response against RT-SHIV (RT-SHIV [1]; ELISA against SIV virion proteins, untreated sero-positive at 4 weeks): delayed induction of humoral response | treated animals sero-positive (RT-SHIV [1]; at 11 weeks post exp.): Two of six | humoral response of animal #5 (RT-SHIV [1]; late course): eventually lost its humoral response | RT-SHIV proviral DNA in PBMC (RT-SHIV [2]; animal #1, treated 8h thru 28 dpi, 2 w p.e.): 0 viral DNA copies/100,000 cells | RT-SHIV proviral DNA in PBMC (RT-SHIV [2]; animal #1, treated 8h thru 28 dpi, 4 w p.e.): 0 viral DNA copies/100,000 cells | RT-SHIV proviral DNA in PBMC (RT-SHIV [2]; animal #1, treated 8h thru 28 dpi, 15 w p.e.): 1 viral DNA copies/100,000 cells | RT-SHIV proviral DNA in PBMC (RT-SHIV [2]; animal #1, treated 8h thru 28 dpi, 40 w p.e.): 0 viral DNA copies/100,000 cells | RT-SHIV proviral DNA in PBMC (RT-SHIV [2]; animal #1, treated 8h thru 28 dpi, 50 w p.e.): 0 viral DNA copies/100,000 cells | RT-SHIV proviral DNA in PBMC (RT-SHIV [2]; animal #3, treated 24 h thru 28 d pi, 2 w p.e.): 0 viral DNA copies/100,000 cells | RT-SHIV proviral DNA in PBMC (RT-SHIV [2]; animal #3, treated 24 h thru 28 d pi, 4 w p.e.): 0 viral DNA copies/100,000 cells | RT-SHIV proviral DNA in PBMC (RT-SHIV [2]; animal #3, treated 24 h thru 28 d pi, 15 w p.e.): 16 viral DNA copies/100,000 cells | RT-SHIV proviral DNA in PBMC (RT-SHIV [2]; animal #3, treated 24 h thru 28 d pi, 40 w p.e.): 0 viral DNA copies/100,000 cells | RT-SHIV proviral DNA in PBMC (RT-SHIV [2]; animal #3, treated 24 h thru 28 d pi, 50 w p.e.): 2 viral DNA copies/100,000 cells | RT-SHIV proviral DNA in PBMC (RT-SHIV [2]; animal #4, treated 24 h thru 28 d pi, 2 w p.e.): 0 viral DNA copies/100,000 cells | RT-SHIV proviral DNA in PBMC (RT-SHIV [2]; animal #4, treated 24 h thru 28 d pi, 4 w p.e.): 0 viral DNA copies/100,000 cells | RT-SHIV proviral DNA in LNMC (RT-SHIV [2]; animal #4, treated 24 h thru 28 d pi): 1 viral DNA copies/100,000 cells | RT-SHIV proviral DNA in PBMC (RT-SHIV [2]; animal #4, treated 24 h thru 28 d pi, 15 w p.e.): 0 viral DNA copies/100,000 cells | RT-SHIV proviral DNA in PBMC (RT-SHIV [2]; animal #4, treated 24 h thru 28 d pi, 40 w p.e.): 0 viral DNA copies/100,000 cells | RT-SHIV proviral DNA in PBMC (RT-SHIV [2]; animal #4, treated 24 h thru 28 d pi, 50 w p.e.): 0 viral DNA copies/100,000 cells | RT-SHIV proviral DNA in PBMC (RT-SHIV [2]; animal #5, treated 8h thru 28 dpi, 2 w p.e.): 0 viral DNA copies/100,000 cells | RT-SHIV proviral DNA in PBMC (RT-SHIV [2]; animal #5, treated 8h thru 28 dpi, 4 w p.e.): 0 viral DNA copies/100,000 cells | RT-SHIV proviral DNA in LNMC (RT-SHIV [2]; animal #5, treated 8h thru 28 dpi): 2 viral DNA copies/100,000 cells | RT-SHIV proviral DNA in PBMC (RT-SHIV [2]; animal #5, treated 8h thru 28 dpi, 15 w p.e.): 0 viral DNA copies/100,000 cells | RT-SHIV proviral DNA in PBMC (RT-SHIV [2]; animal #5, treated 8h thru 28 dpi, 40 w p.e.): 0 viral DNA copies/100,000 cells | RT-SHIV proviral DNA in PBMC (RT-SHIV [2]; animal #5, treated 8h thru 28 dpi, 50 w p.e.): 0 viral DNA copies/100,000 cells | RT-SHIV proviral DNA in PBMC (RT-SHIV [2]; animal #10, treated 8h thru 28 dpi, 2 w p.e.): 0 viral DNA copies/100,000 cells | RT-SHIV proviral DNA in PBMC (RT-SHIV [2]; animal #10, treated 8h thru 28 dpi, 4 w p.e.): 0 viral DNA copies/100,000 cells | RT-SHIV proviral DNA in PBMC (RT-SHIV [2]; animal #10, treated 8h thru 28 dpi, 15 w p.e.): 7 viral DNA copies/100,000 cells | RT-SHIV proviral DNA in PBMC (RT-SHIV [2]; animal #10, treated 8h thru 28 dpi, 40 w p.e.): 1 viral DNA copies/100,000 cells | RT-SHIV proviral DNA in PBMC (RT-SHIV [2]; animal #10, treated 8h thru 28 dpi, 50 w p.e.): 5 viral DNA copies/100,000 cells | RT-SHIV proviral DNA in PBMC (RT-SHIV [2]; animal #11, treated 24 h thru 28 d pi, 2 w p.e.): 0 viral DNA copies/100,000 cells | RT-SHIV proviral DNA in PBMC (RT-SHIV [2]; animal #11, treated 24 h thru 28 d pi, 4 w p.e.): 0 viral DNA copies/100,000 cells | RT-SHIV proviral DNA in PBMC (RT-SHIV [2]; animal #11, treated 24 h thru 28 d pi, 15 w p.e.): 1 viral DNA copies/100,000 cells | RT-SHIV proviral DNA in PBMC (RT-SHIV [2]; animal #11, treated 24 h thru 28 d pi, 40 w p.e.): 0 viral DNA copies/100,000 cells | RT-SHIV proviral DNA in PBMC (RT-SHIV [2]; animal #11, treated 24 h thru 28 d pi, 50 w p.e.): 0 viral DNA copies/100,000 cells | proviral DNA levels (persistent infection) in treated groups relative to untreated (RT-SHIV [2]; treated groups versus untreated animals): very low; also recorded: far lower level of persistent infection | suppression of RT-SHIV replication (RT-SHIV [3]; 10 nM COMPOUND A, Herpes Saimiri Virus transformed monkey CD4+ cells): more than 95% | IC90 (RT-SHIV [3]; Simian-Human immunodeficiency virus, CD4+ T, in Primates, read-out: IC90 value (RT-SHIV replication)): 8 nM | concentration in cerebral spinal fluid (CSF) relative to blood [4]: approximately one tenth | minimum level of the drug [4]: higher than the effective minimal concentration | trough concentration relative to the IC90 value [4]: 3 fold
